Test system: KLK-5
Experiment: Inhibition of the synthesis of KLK-5 secreted by normal human keratinocytes in an environment mimicking rosacea (IL-17 + Vit. D induction, ELISA on supernatants, normalized to MTT cell viability)
Assay type: cell-based
Details: Keratinocyte, NHK, 48 hours, induced with IL-17 10 ng/ml + Vit. D 10-7 mol/L, 1 mM calcium, positive control
Protocol: NHKs originating from LONZA (France) were used in this study.
The culture conditions are as follows: • Cell type: NHK donor PP12 • Culture medium: KBM+Lonza supplements=KGM • Seeding density: 15,000 cells/well in 96-well plates with 100 μl of medium.
The conditions for induction of the synthesis of KLK-5 are as follows: • Presence of 1 mM of calcium • Inducer mix: (see Table 1) IL-17 at 10 ng/ml+Vit. D at 10-7 mol/L • Processing time: 48 hours • Positive control of induced KLK5 inhibition: Dexamethasone at 1 μM
The quantification of KLK-5 in the supernatants is carried out using an Enzyme Linked Immunosorbent Assay (ELISA) (Ref: DY8459-05, R&D Systems, France) with the reagents recommended by the manufacturer (DuoSet Ancillary Reagent Kit 2, Ref: DY008, R&D Systems, France) and used according to the manufacturer's instructions.
The optical density (OD) is read with a spectrophotometer at 450 nm. The concentration of KLK-5 is calculated from the standard range (15.6 to 1000 pg/ml) established with the recombinant human protein of KLK-5.
A dilution of the supernatants to 1/50th is mandatory so that the samples are not out of range. […]
MTT is a soluble yellow dye which is metabolized by mitochondrial enzymes (succinate dehydrogenase) into a dark blue compound: formazan. The formazan crystals are then dissolved in DMSO then the optical density is measured spectrophotometrically at 540 nm. […]

## C[C@@H]1C[C@H]2[C@@H]3CCC4=CC(=O)C=C[C@]4(C)[C@@]3(F)[C@@H](O)C[C@]2(C)[C@@]1(O)C(=O)CO [dexamethasone]
  inhibition at 1 µM: 16.6%

Source: US11813350B2, “Composition for the treatment of rosacea and/or telangiectasia” (NAOS INSTITUTE OF LIFE SCIENCE, priority 2020, dated 2023)
